Measurements published in patent US10166270B2, “Composition and method for affecting cytokines and NF-κB” (priority 2004, dated 2019).

Columns and labels:
[1] = tested on: carrageenan-induced paw edema; test: Carrageenan-induced paw edema; format: in vivo, rat
Excerpt: The carrageenan-induced paw edema assay was used as an in vivo indicator of the anti-inflammatory effects of the phyto-percolate. Carrageenan induces local inflammation and edema when injected into the paw pad of a rat (Di Rosa et al., 1971). The development of paw edema is believed to be biphasic (Vinegar et al., 1969). The initial phase is attributable to the local release of histamine and serotonin (Crunkhon et al., 1971) and the second phase is caused by prostaglandin release as a result of COX activation. […] Each treatment group is compared to control.

IFN-γ = test: ELISA of cytokine secretion by PBMC: IFN-γ; format: cell-based, human; details: PMA added to cultured PBMC
Experimental: (§1) According to this exemplary embodiment, phyto-percolate and the flow-through/F4 were tested as they appeared in their original concentrations right off the columns, only diluted 1:20 and 1:100 as described herein. The culture of peripheral blood mononuclear cells (“PBMC”) is prepared with two vials of frozen PBMCs that were obtained from normal healthy human subjects by a commercial vendor and were added to 2×10 ml medium and centrifuged. PBMCs were resuspended and cultured in RPMI1640/5% FBS for 24 h. (1 vial of frozen cells in 11 ml medium).
(§2) Treatment agents for this exemplary method comprise three agents: unseparated phyto-percolate (‘PAZ’), fraction 3 (‘F3’), fraction 4 (‘F4’). Treatment concentration for each was 1:20 & 1:100. […]
(§3) According to this exemplary embodiment, seeding, treatment, and detection is accomplished by the following steps. Two dishes of PBMCs were combined and the small amount of PBMCs was stained with 0.4% Trypan blue and the cell number of PBMCs was counted using known techniques.
(§4) In this embodiment, an enzyme linked immunosorbent assay (“ELISA”) analysis of inflammatory cytokine secretion, a protocol provided in a commercial kit for the parallel quantification of the production of human cytokines was employed. […]

GM-CSF = test: ELISA of cytokine secretion by PBMC: GM-CSF; format: cell-based, human; details: PMA added to cultured PBMC
Experimental: as §1, §2, §3, §4

IL-17A = test: ELISA of cytokine secretion by PBMC: IL-17A; format: cell-based, human; details: PMA added to cultured PBMC
Experimental: as §1, §2, §3, §4

IL-2 = test: ELISA of cytokine secretion by PBMC: IL-2; format: cell-based, human; details: PMA added to cultured PBMC (with ionomycin)
Experimental: as §1, §2, §3, §4

TNF-α = test: ELISA of cytokine secretion by PBMC: TNF-α; format: cell-based, human; details: PMA added to cultured PBMC
Experimental: as §1, §2, §3, §4

human COX-2 = target: T1, human COX-2 (Homo sapiens, UniProt P35354); test: in vitro COX-2 inhibition (arachidonic acid to PGE2, EIA); format: biochemical; details: read-out: % COX-2 Inhibition (Individual assay values)
T1 construct: host or cells: Sf21 insect cells
T1 sequence (P35354 18-604): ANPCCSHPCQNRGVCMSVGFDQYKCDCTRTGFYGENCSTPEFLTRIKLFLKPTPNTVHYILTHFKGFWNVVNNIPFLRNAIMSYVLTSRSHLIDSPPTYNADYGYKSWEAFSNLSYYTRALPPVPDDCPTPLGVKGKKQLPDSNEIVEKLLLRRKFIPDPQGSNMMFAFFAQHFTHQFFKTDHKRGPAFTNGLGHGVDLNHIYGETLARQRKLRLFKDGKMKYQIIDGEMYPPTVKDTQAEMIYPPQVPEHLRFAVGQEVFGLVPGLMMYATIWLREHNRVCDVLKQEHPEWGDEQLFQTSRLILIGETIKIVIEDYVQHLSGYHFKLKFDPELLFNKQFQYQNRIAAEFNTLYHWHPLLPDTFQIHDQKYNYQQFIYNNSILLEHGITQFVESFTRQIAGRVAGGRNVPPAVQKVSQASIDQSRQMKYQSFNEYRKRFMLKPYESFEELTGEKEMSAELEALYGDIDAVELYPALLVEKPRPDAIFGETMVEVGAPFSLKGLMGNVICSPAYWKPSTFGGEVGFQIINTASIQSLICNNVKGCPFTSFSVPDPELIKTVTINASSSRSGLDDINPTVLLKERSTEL
Experimental: Three separate preparations of the phyto-percolate were screened, using an in vitro assay, for COX-2 inhibition. Riendeau et al., Can. J. Physiol. […] Briefly, this assay measured to conversion of 0.3 μM arachidonic acid to PGE2 by human recombinant insect Sf21 cells expression human COX-2. The incubation buffer contained 100 mM Tris-HCl (pH 7.7), 1 mM glutathione, 1 μM hematin, and 500 μM phenol. PGE2 was quantified using an enzyme-linked immunoassay (EIA).
Sample 1 was a sample of diluted phyto-percolate concentrated approximately 100-fold by drying under N2. Sample 2 was prepared by drying a 4800 μl sample of diluted phyto-percolate under N2 and reconstituting it in 96 μl of ddH2O just prior to assay. Sample 3 was prepared by lyophilizing a 4800 μl sample of diluted phyto-percolate and reconstituting it in 96 μl of ddH2O just prior to assay. The concentrations of phyto-percolate used, 100×, 10×, and IX, refer to 10 μl, 1 μl, and 0.1 μl of sample, respectively, in a final assay volume of 100 μl. […] Each sample was assayed in at least three concentrations and the assays were performed in duplicate.

NF-κB = test: EMSA of DNA-binding activity of NF-κB in cultured PBMC; format: cell-based, human; details: TNF-α (50 ng/ml) added one hour before harvesting
Experimental: as §1
Treatment agents for this exemplary method comprise three agents: unseparated phyto-percolate (‘PAZ’), fraction 3 (‘F3’), fraction 4 (‘F4’). Treatment concentration for each was 1:20 & 1:100. An exemplary sample preparation method for each agent by dilution is as follows: First, a 1:10 dilution is prepared by combining 0.7 ml agent (either PAZ, F3 or F4)+6.3 ml RPMI1640/5% FBS to obtain a total volume of 7 ml of a 1:10 solution. […]
Analysis of the effect of phyto-percolate or fractions isolated therefrom on the DNA-binding activity of NF-κB in the nuclear protein fractions of the cultured PBMC was determined as follows in this exemplary embodiment: approximately 18.26 mL of suspended PBMC were added to approximately 18 mL of culture medium and 2 mL of this cell suspension (2,718,000 cells in 2 mL) were seeded into each 60 mm culture dish. […]

[2] = 0 hours, oral dose 30 min before carrageenan, n=6

Compound | paw volume, % change from control ([1]; 0 hours) | Mean paw volume ± SD [1, 2] [mL] | Mean paw volume ± SD ([1]; 2 hours) [mL] | paw volume, % change from control ([1]; 2 hours) | Mean paw volume ± SD ([1]; 4 hours) [mL] | paw volume, % change from control ([1]; 4 hours) | Mean paw volume ± SD ([1]; 6 hours) [mL] | paw volume, % change from control ([1]; 6 hours) | Mean paw volume ± SD ([1]; 8 hours) [mL] | paw volume, % change from control ([1]; 8 hours) | Mean paw volume ± SD ([1]; 20 hours) [mL] | paw volume, % change from control ([1]; 20 hours) | further results
CC(=O)Oc1ccccc1C(=O)O [Aspirin, aspirin] | (1%) | 1.25 ± 0.08 | 2.22 ± 0.28 | (4%) | 2.07 ± 0.23 | (−10%) | 1.92 ± 0.18 | (−20%) | 1.80 ± 0.18 | (−25%) | 1.42 ± 0.16 | (−23%) | –
COc1ccc2c(c1)c(CC(=O)O)c(C)n2C(=O)c1ccc(Cl)cc1 [Indomethacin, indomethacin] | (1%) | 1.25 ± 0.05 | 2.25 ± 0.23 | (7%) | 2.18 ± 0.22 | (1%) | 2.00 ± 0.22 | (−12%) | 1.83 ± 0.23 | (−22%) | 1.37 ± 0.10 | (−38%) | –
CCCCCCCCCCCCCC(=O)O[C@@H]1[C@@H](C)[C@@]2(O)[C@@H](C=C(CO)C[C@]3(O)C(=O)C(C)=C[C@@H]23)[C@@H]2C(C)(C)[C@]12OC(C)=O [PMA, phorbol myristate acetate] | – | – | – | – | – | – | – | – | – | – | – | – | secretion of IFN-γ (IFN-γ): approximately 70 pg/100,000 cells; secretion of GM-CSF (GM-CSF): approximately 50 pg/100,000 cells; secretion of IL-17A (IL-17A): approximately 3 pg/100,000 cells; secretion of IL-2 (IL-2): approximately 125 pg/100,000 cells; secretion of TNF-α (TNF-α): approximately 50 pg/100,000 cells
CS(=O)(=O)c1ccc(C2=C(c3ccccc3)C(=O)OC2)cc1 [rofecoxib] | – | – | – | – | – | – | – | – | – | – | – | – | inhibition at 0.01 µM (human COX-2): 11%; inhibition at 0.03 µM (human COX-2): 16%; inhibition at 0.1 µM (human COX-2): 33%; inhibition at 0.3 µM (human COX-2): 55%; inhibition at 1 µM (human COX-2): 88%
TNF-α | – | – | – | – | – | – | – | – | – | – | – | – | DNA-binding activity of NF-κB, relative level (control = 1.0) (NF-κB): ~2.0
